What was measured:
[1] = test system: HeLa cells transfected with the estrogen receptor α (mERα); test: Etoposide-induced apoptosis of HeLa cells stably transfected with mERα; format: cell-based, human; settings: compound 10^−8 M 1 h, etoposide 5×10^−5 M 6 hour
From the text: CMV promoter alone and CMV promoter-driven cDNA for mERα or mErβ were stably transfected into HeLa cells. […] Cells were trypsinized, pelleted and trypan blue positive cells enumerated.
(§1) In this experiment, instead of calvaria cells, human HeLa cells which contain undetectable, if any, estrogen receptor were used. HeLa cells were stably transfected with either a CMV promoter-driven cDNA for the murine estrogen receptor-alpha (mERα) or a CMV promoter-driven cDNA for the murine estrogen receptor-beta (mERβ). […] Cells were trypsinized, pelleted and trypan blue positive cells were enumerated.

[2] = Vertebral compression strength of fifth lumbar vertebrae (L5); format: in vivo, mice; settings: 2000 ng/g body weight for 28 days, mean
Experimental: In a representative experiment of this sort, seven 4-5 month old female mice per group are screened twice for BMD in a four week period immediately prior to the initiation of the experiment to establish that peak adult bone mass has been attained. A subset of mice are then ovariectomized. Intact and ovariectomized mice are treated with vehicle, or 20, 200 or 2000 ng/g body weight estratriene-3-ol or another ANGEL compound. […] Ultimate load bearing properties of the fifth lumbar murine vertebrae (L5) is determined. This is done using a servohydraulic axial-torsional material testing machine (Model MTS 810 Bionx; MTS Systems Corp., Eden Prairie, Minn.) and a Lebow load cell (Eaton Products, Troy, Mich.). Data are recorded and analyzed using the LabVIEW software package and an acquisition/signal conditioning board (Model NB-MIO-16, National Instruments Corporation, Austin, Tex.). The L5 specimens that is used for ultimate load bearing is cleaned of surrounding soft tissue and the length and diameter recorded with a digital caliper at a resolution of 0.01 mm (Mitutoyo Model #500-196, Ace Tools, Ft. Smith, Ark.). […] Vertebrae are individually compressed between parallel loading platens along the cephalocaudad axis until failure and the ultimate load (in Newtons) and displacement (in mm) are recorded. […]

[3] = test system: wild type HeLa cells; test: Etoposide-induced apoptosis of wild type HeLa cells; format: cell-based, human; settings: compound 10^−8 M 1 h, etoposide 5×10^−5 M 6 hour
From the text: CMV promoter alone and CMV promoter-driven cDNA for mERα or mErβ were stably transfected into HeLa cells. […] Cells were trypsinized, pelleted and trypan blue positive cells enumerated. Each bar represents mean of duplicate experiments ±SEM. *P<0.02 versus etoposide alone.
as §1

SMILES: C[C@@]12CCC[C@H]1[C@@H]1CCc3cc(O)ccc3[C@H]1CC2 [estratriene-3-ol]
- Effect on etoposide-induced apoptosis [1]: potently inhibited
- Vertebral Compression ([2]; Ovx mice, p < 0.00001): 85.57 ± 10.17 Newtons
- Vertebral Compression ([2]; intact mice, p < 0.006): 96.26 ± 15.92 Newtons
- Effect on etoposide-induced apoptosis [3]: none of the three compounds had any effect
